According to article PMC10096180, “Half-Sandwich Type Platinum-Group Metal Complexes of C-Glucosaminyl Azines: Synthesis and Antineoplastic and Antimicrobial Activities” (Molecules, 2023):
Where two headings read alike, the source gives them in different places.

Columns and labels:
A2780 cells [1] = test: MTT reduction assay, early toxicity, 4 h treatment; assay type: cell-based; settings: inhibition at maximum concentration (100 μM) where no plateau, ND = not detectable
Procedure: (§1) The complexes described above are intended to replace registered platinum complexes. Platinum complexes constitute the core of the chemotherapy regimen used in ovarian cancer; therefore, we used a cellular model of ovarian cancer, A2780, and primary human dermal fibroblasts as models of non-transformed cells (controls). For the characterization of the complexes, we used an MTT assay after 4 h of treatment for the detection of early toxicity and an SRB assay 48 h after treatment for the detection of cytostasis.
(§2) An MTT reduction assay was measures the activity of mitochondrial complex I and can be used to detect toxicity. The assay was performed in a manner similar to that described in [84]. Briefly, cells were plated in 96-well plates the day before the assay. Cells were treated with the compounds for 4 h; then, MTT was added to a 0.5 mg/mL final concentration, and cells were incubated at 37 °C in a cell incubator for 40–60 min as a function of the cell line being assessed. Culture medium was removed, the reduced MTT dye was dissolved in dimethyl-sulfoxide, and plates were measured in a plate photometer (Thermo Scientific Multiscan GO spectrophotometer, Waltham, MA, USA) at 540 nm. On each plate, wells were designed to contain vehicle-treated cells. In calculations, the readings for these wells were considered to 1, and all readings were expressed relative to these values.
(§3) Statistical analysis was performed using version 8.0.1 of GraphPad Prism. Values were tested for normal distribution using the Shapiro–Wilk normality test. Nonlinear regression was performed using the built-in “[Inhibitor] vs. response—Variable slope (four parameters), least square fit” utility of GraphPad, which yielded IC50 and Hill slope values if the sigmoid curves reached a plateau of inhibition and there was no decrease between two subsequent data points or when inhibition was over 90%. In other cases, the percentage of inhibition was taken for the maximum concentration (100 μM).

[2] = system: primary human dermal fibroblasts; test: MTT reduction assay, early toxicity, 4 h treatment; assay type: cell-based; settings: up to 100 μM
Procedure: as §1, §2, §3

A2780 cells [3] = test: SRB binding assay, cytostasis, 48 h treatment; assay type: cell-based; settings: for A2780 SRB Max Inhibition: up to 100 μM, ND = not detectable
Procedure: as §1
An SRB assay measures protein content of cells in correlation with the cell number in an assay well and can therefore be used to assess cell proliferation or long-term cytostasis. Cells were seeded in 96-well plates the day before the assay. Cells were treated with the compounds for 48 h. Then medium was removed, and cells were fixed with 10% trichloroacetic acid. Fixed cells were washed in distilled water 3 times, followed by staining with SRB (0.4 m/V% dissolved in 1% acetic acid) for 10 min. Stained cells were washed in 1% acetic acid 5 times; acetic acid was removed, and cells were left to dry. Protein-bound SRB was released by adding 100 μL 10 mM Tris base. Plates were measured in a plate photometer (Thermo Scientific Multiscan GO spectrophotometer, Waltham, MA, USA) at 540 nm. On each plate, wells were designed to contain vehicle-treated cells. In calculations, the readings for these wells were considered to be 1, and all readings were expressed relative to these values.
as §3

[4] = Distribution coefficient (logD), n-octanol-PBS; assay type: physicochemical; settings: n-octanol-PBS (pH = 7.4) system
Procedure: The logD values of the newly synthesized complexes were determined according to a procedure described in our previous publications. page 64: Ir-7b +1.17 Rh-7b +1.41 Ru-7c +1.31 Os-7c +1.59 Ir-7c +1.40 Rh-7c +1.13 Ru-7d +1.26 Os-7d +1.42 Ir-7d +1.30 Rh-7d +1.04 Ru-7e +2.22 Os-7e +2.21 Ir-7e +1.39 Rh-7e +1.66 *logD was determined in an n-octanol-PBS (pH = 7.4) system 64 (14 pictures or pasted objects on this page, not shown here)

[5] = system: Enterococcus faecalis (ATCC29212); test: Broth microdilution MIC, reference strain; assay type: cell-based; settings: 24 h, tested range 0.08–40 μM, read-out: MIC E. faecalis ATCC 29,212
Procedure: (§4) The reference strains of Staphylococcus aureus (ATCC29213) and Enterococcus faecalis (ATCC29212) were purchased from the ATCC (Manassas, VA, USA).
(§5) Microdilution experiments were performed according to the standards of EUCAST [85]. The bacterial isolates to be tested were grown on Mueller–Hinton agar plates. The inoculum density of bacteria was set at 5.0 × 10^5 CFU/mL in microtiter plates in a final volume of 200 μL Mueller–Hinton broth. The tested concentration range was 0.08–40 μM (10 concentrations, twofold serial dilutions), and a drug-free growth control and an inoculum-free negative control were included. The inoculated plates were incubated for 24 h at 37 °C, then visually assessed. Minimum inhibitory concentration (MIC) was defined as the lowest concentration with a 50%≤ inhibitory effect compared to the growth control. All experiments were performed at least twice in duplicate.

[6] = system: Staphylococcus aureus (ATCC29213); test: Broth microdilution MIC, reference strain; assay type: cell-based; settings: 0.08–40 μM, read-out: MIC S. aureus ATCC 29213
Procedure: as §4, §5

[7] = system: vancomycin-resistant Enterococcus (VRE) clinical isolates; test: Broth microdilution MIC, clinical VRE isolates; assay type: cell-based, E. faecium; settings: 24 h, 0.08–40 μM
Procedure: (§6) We used a set of clinical isolates of S. aureus and E. faecium that were collected at the Medical Center of the University of Debrecen (Hungary) between 1 January 2018. and 31 December 2020. The clinical isolates were identified using a Microflex MALDI-TOF mass spectrometer (Bruker, Billerica, MA, USA). The antibiotic susceptibility of the isolates was tested following the European Committee on Antimicrobial Susceptibility Testing (EUCAST) guidelines, which were valid at the time of collection.
as §5

[8] = system: methicillin-resistant Staphylococcus aureus (MRSA) clinical isolates; test: Broth microdilution MIC, clinical MRSA isolates; assay type: cell-based; settings: 24 h, 0.08–40 μM
Procedure: as §6, §5

[9] = clinical isolate 25,051 VRE, read-out: MIC 25,051 VRE
[10] = clinical isolate 25,498 VRE, read-out: MIC 25,498 VRE
[11] = clinical isolate 27,085 VRE, read-out: MIC 27,085 VRE
[12] = clinical isolate 20,426 MRSA, read-out: MIC 20,426 MRSA
[13] = clinical isolate 24,035 MRSA, read-out: MIC 24,035 MRSA
[14] = clinical isolate 24,268 MRSA, read-out: MIC 24,268 MRSA
[15] = clinical isolate 24,272 MRSA, read-out: MIC 24,272 MRSA
[16] = clinical isolate 24,328 MRSA, read-out: MIC 24,328 MRSA
[17] = clinical isolate 24,408 MRSA, read-out: MIC 24,408 MRSA

Row | logD [4] | MIC [5] [µM] | MIC ([6]; 24 h) [µM] | MIC [7, 9] [µM] | MIC [7, 10] [µM] | MIC [7, 11] [µM] | MIC [8, 12] [µM] | MIC [8, 13] [µM] | MIC [8, 14] [µM] | MIC [8, 15] [µM] | MIC [8, 16] [µM] | MIC [8, 17] [µM] | IC50 (A2780 cells [3]) [µM] | Compound | A2780 MTT Max Inhibition (A2780 cells [1]) [%] | Fibroblast MTT Max Inhibition [2] [%] | A2780 SRB Max Inhibition (A2780 cells [3]) [%] | further results
1 | 1.17 | 40 | >40 | 40 | 40 | 40 | 40 | 40 | 40 | 40 | 40 | 40 | – | Cc1c(C)c(C)[c-](C)c1C.F[P-](F)(F)(F)(F)F.NC1C(c2cccnn2)OC(COC(=O)c2ccccc2)C(OC(=O)c2ccccc2)C1OC(=O)c1ccccc1.[Cl][Ir+2] (mixture of isomers) [Ir-7b] | 53.39 | 27.22 | 77.58 | –
2 | 1.41 | >40 | >40 | >40 | >40 | >40 | >40 | >40 | >40 | >40 | >40 | >40 | 32 | Cc1c(C)c(C)[c-](C)c1C.F[P-](F)(F)(F)(F)F.NC1C(c2cccnn2)OC(COC(=O)c2ccccc2)C(OC(=O)c2ccccc2)C1OC(=O)c1ccccc1.[Cl][Rh+2] (mixture of isomers) [Rh-7b] | 62.85 | 11.39 | >90 | –
3 | 1.66 | >40 | >40 | >40 | >40 | >40 | >40 | >40 | >40 | >40 | >40 | >40 | – | Cc1c(C)c(C)[c-](C)c1C.F[P-](F)(F)(F)(F)F.N[C@@H]1[C@@H](OC(=O)c2ccccc2)[C@H](OC(=O)c2ccccc2)[C@@H](COC(=O)c2ccccc2)O[C@H]1c1ccc2ccccc2n1.[Cl][Rh+2] [Rh-7e] | 31.89 | – | 67.32 | –

Further lines, the compound ahead of its results:

Row | Compound | logD [4] | MIC [5] [µM] | MIC ([6]; 24 h) [µM] | MIC [7, 9] [µM] | MIC [7, 10] [µM] | MIC [7, 11] [µM] | MIC [8, 12] [µM] | MIC [8, 13] [µM] | MIC [8, 14] [µM] | MIC [8, 15] [µM] | MIC [8, 16] [µM] | MIC [8, 17] [µM] | IC50 (A2780 cells [3]) [µM] | A2780 MTT Max Inhibition (A2780 cells [1]) [%] | Fibroblast MTT Max Inhibition [2] [%] | A2780 SRB Max Inhibition (A2780 cells [3]) [%] | further results
4 | Cc1ccc(C(C)C)cc1.F[P-](F)(F)(F)(F)F.NC1C(c2cccnn2)OC(COC(=O)c2ccccc2)C(OC(=O)c2ccccc2)C1OC(=O)c1ccccc1.[Cl][Os+] (mixture of isomers) [Os-7b] | 1.32 | 10 | 20 | 10 | 10 | 10 | 10 | 10 | 10 | 10 | 20 | 10 | 56.4 | 53.39 | 27.22 | >90 | –
5 | N[C@@H]1[C@@H](OC(=O)c2ccccc2)[C@H](OC(=O)c2ccccc2)[C@@H](COC(=O)c2ccccc2)O[C@H]1c1cccnn1 [Complex 7b, 3-(2′-Amino-2′-deoxy-3′,4′,6′-tri-O-benzoyl-β-D-glucopyranosyl)pyridazine] | – | – | – | – | – | – | – | – | – | – | – | – | – | – | 11.39 | 18.38 | inhibition at 100 µM (A2780 cells [1]; Homo sapiens, read-out: A2780 MTT Max Inhibition): 9.12%; MIC ([5]; Enterococcus faecalis): > 40 µM; MIC ([6]; Staphylococcus aureus, ATCC29213, 24 h): > 40 µM; MIC ([7]; Enterococcus, clinical isolate 25,051 VRE, read-out: MIC 25,051 VRE): > 40 µM; MIC ([7]; Enterococcus, clinical isolate 25,498 VRE, read-out: MIC 25,498 VRE): > 40 µM; MIC ([7]; Enterococcus, clinical isolate 27,085 VRE, read-out: MIC 27,085 VRE): > 40 µM; MIC ([8]; Staphylococcus aureus, clinical isolate 20,426 MRSA, read-out: MIC 20,426 MRSA): > 40 µM; MIC ([8]; Staphylococcus aureus, clinical isolate 24,035 MRSA, read-out: MIC 24,035 MRSA): > 40 µM; MIC ([8]; Staphylococcus aureus, clinical isolate 24,268 MRSA, read-out: MIC 24,268 MRSA): > 40 µM; MIC ([8]; Staphylococcus aureus, clinical isolate 24,272 MRSA, read-out: MIC 24,272 MRSA): > 40 µM; MIC ([8]; Staphylococcus aureus, clinical isolate 24,328 MRSA, read-out: MIC 24,328 MRSA): > 40 µM; MIC ([8]; Staphylococcus aureus, clinical isolate 24,408 MRSA, read-out: MIC 24,408 MRSA): > 40 µM
6 | Cc1c(C)c(C)[c-](C)c1C.F[P-](F)(F)(F)(F)F.N[C@@H]1[C@@H](OCc2ccccc2)[C@H](OCc2ccccc2)[C@@H](COCc2ccccc2)O[C@H]1c1ccccn1.[Cl][Rh+2] [Rh-3a] | 1.64 | >40 | >40 | >40 | >40 | >40 | >40 | >40 | >40 | >40 | >40 | >40 | 9.81 | – | 37.82 | >90 | –
7 | Cc1ccc(C(C)C)cc1.F[P-](F)(F)(F)(F)F.N[C@@H]1[C@@H](OC(=O)c2ccccc2)[C@H](OC(=O)c2ccccc2)[C@@H](COC(=O)c2ccccc2)O[C@H]1c1ccc2ccccc2n1.[Cl][Ru+] [Ru-7e] | 2.22 | >40 | >40 | >40 | >40 | >40 | >40 | >40 | >40 | >40 | >40 | >40 | – | 27.04 | – | 67.50 | –
